# Assay results published in US7932277B2, “Peptide inhibitors of hepatitis C virus replication” (InterMune, Inc., priority 2007, dated 2011).
# Legend:
# [1] = biological target: T1, NS3/NS4A-2 (full-length HCV NS3 protease complexed with NS4A-2) (Hepatitis C virus genotype 1a, UniProt P27958); test: NS3 inhibition assay (NS3-NS4 protease assay); format: biochemical; details: recombinant full-length NS3/NS4A-2, RETS1 substrate, kinetic fluorescence read; read-out: NS3-NS4 IC50
# T1 construct: Recombinant E. coli or Baculovirus full-length NS3; host or cells: E. coli or baculovirus (insect cells)
# Description: Recombinant E. coli or Baculovirus full-length NS3 was diluted to 3.33 μM with assay buffer and transferred material to an eppendorf tube and place in water bath in 4° C. refrigerator. The appropriate amount of NS4A-2 to 8.3 mM in assay buffer was added to equal the volume of NS3 in step 2.1.1 (conversion factor −3.8 mg/272 μL assay buffer). The material was transferred to an eppendorf tube and place in water bath in 4° C. refrigerator.
# After equilibration to 4° C., equal volumes of NS3 and NS4A-2 solutions were combined in an eppendorf tube, mix gently with a manual pipettor, and incubate mixture for 15 minutes in the 4° C. water bath. Final concentrations in the mixture are 1.67 μM NS3, 4.15 mM NS4A-2 (2485-fold molar excess NS4A-2).
# After 15 minutes at 4° C., the NS3/NS4A-2 eppendorf tube was removed and place it in a room temperature water bath for 10 minutes. NS3/NS4A-2 was aliquoted at appropriate volumes and store at −80° C. (E. coli NS3 run at 2 nM in assay, aliquot at 25 μL. BV NS3 run at 3 nM in assay, aliquot at 30 μL).
# Sample compounds were dissolved to 10 mM in DMSO then diluted to 2.5 mM (1:4) in DMSO. Typically, compounds were added to an assay plate at 2.5 mM concentration, yielding upon dilution a starting concentration of 50 microM in the assay inhibition curve. Compounds were serial diluted in assay buffer to provide test solutions at lower concentrations.
# The E. coli. NS3/NS4A-2 was diluted to 4 nM NS3 (1:417.5 of 1.67 μM stock−18 μL1.67 μM stock+7497 μL assay buffer). The BV NS3/NS4A-2 was diluted to 6 nM NS3 (1:278.3 of 1.67 μM stock−24 μL1.67 μM stock+6655 μL assay buffer). Using the manual multichannel pipettor, careful not to introduce bubbles into the plate, add 50 μL assay buffer to wells A01-H01 of a black Costar 96-well polypropylene storage plate.
# Using the manual multichannel pipettor, careful not to introduce bubbles into the plate, add 50 μL of diluted NS3/NS4A-2 from step 2.2.6 to wells A02-H12 of plate in step 2.2.7. Using the manual multichannel pipettor, careful not to introduce bubbles into the plate, transfer 25 μL of the wells in drug dilution plate in step 2.2.5 to corresponding wells in assay plate in step 2.2.8. Change tips on multichannel pipettor for each row of compounds transferred. Using the manual multichannel pipettor, careful not to introduce bubbles into the plate, mix the wells from the assay plate in step 2.2.9 by aspirating and dispensing 35 μL of the 75 μL in each well five times. Change tips on multichannel pipettor for each row of wells mixed. Cover plate with a polystyrene plate lid and pre-incubate the plate from step 2.2.10 containing NS3 protease and sample compounds 10 minutes at room temperature. While plate from step 2.2.11 is pre-incubating, dilute RETS1 substrate in a 15 mL polypropylene centrifuge tube. Dilute RETS1 substrate to 8 μM (1:80.75 of 646 μM stock−65 μL 646 μM stock+5184 μL assay buffer).
# After the plate in step is done pre-incubating, and using the manual multichannel, add 25 μL of substrate to all wells on the plate. Quickly mix the plate as in step 2.2.10, mixing 65 μL of the 100 μL in the wells.
# Read the plate in kinetic mode on the Molecular Devices SpectraMax Gemini XS plate reader. Reader settings: Read time: 30 minutes, Interval: 36 seconds, Reads: 51, Excitation λ: 335 nm, Emission λ: 495 nm, cutoff: 475 nm, Automix: off, Calibrate: once, PMT: high, Reads/well: 6, Vmax pts: 21 or 28/51 depending on length of linearity of reaction
# IC50s are determined using a four parameter curve fit equation, and converted to Ki's using the following Km's: • Full-length E. coli NS3−2.03 μM • Full-length BV NS3−1.74 μM • where Ki=IC50/(1+[S]/Km)) • Quantitation by ELISA of the Selectable Marker Protein, Neomycin Phosphotransferase II (NPTII) in the HCV Sub-Genomic Replicon, GS4.3
# [2] = test system: HCV sub-genomic replicon (1377/NS3-3') in HuH-7 hepatoma cells (GS4.3); test: Quantitation by ELISA of NPTII in the HCV sub-genomic replicon, GS4.3; format: cell-based, hepatitis C virus (HCV); details: Hepatitis C virus, Huh-7; GS4.3 cells, 72 h incubation, NPTII ELISA; read-out: Replicon EC50
# Description: The HCV sub-genomic replicon (1377/NS3-3′, accession No. AJ242652), stably maintained in HuH-7 hepatoma cells, was created by Lohmann et al. Science 285: 110-113 (1999). The replicon-containing cell culture, designated GS4.3, was obtained from Dr. Christoph Seeger of the Institute for Cancer Research, Fox Chase Cancer Center, Philadelphia, Pa.
# GS4.3 cells were maintained at 37° C., 5% CO2, in DMEM (Gibco 11965-092) supplemented with L-glutamine 200 mM (100×) (Gibco25030-081), non-essential amino acids (NEAA) (Biowhittaker 13-114E), heat-inactivated (HI) Fetal Bovine Serum (FBS) (Hyclone SH3007.03) and 750 μg/mL geneticin (G418)(Gibco 10131-035). Cells were sub-divided 1:3 or 4 every 2-3 days.
# 24 h prior to the assay, GS4.3 cells were collected, counted, and plated in 96-well plates (Costar 3585) at 7500 cells/well in 100 μL standard maintenance medium (above) and incubated in the conditions above. To initiate the assay, culture medium was removed, cells were washed once with PBS (Gibco 10010-023) and 90 μl Assay Medium (DMEM, L-glutamine, NEAA, 10% HI FBS, no G418) was added. Inhibitors were made as a 10× stock in Assay Medium, (3-fold dilutions from 10 μM to 56 pM final concentration, final DMSO concentration 1%), 10 μL were added to duplicate wells, plates were rocked to mix, and incubated as above for 72 h.
# An NPTII Elisa kit was obtained from AGDIA, Inc. (Compound direct ELISA test system for Neomycin Phosphotransferase II, PSP 73000/4800). Manufacturer's instructions were followed, with some modifications. 10×PEB-1 lysis buffer was made up to include 500 μM PMSF (Sigma P7626, 50 mM stock in isopropanol). After 72 h incubation, cells were washed once with PBS and 150 μL PEB-1 with PMSF was added per well. Plates were agitated vigorously for 15 minutes, room temperature, then frozen at −70° C. Plates were thawed, lysates were mixed thoroughly, and 100 μl were applied to an NPTII Elisa plate. A standard curve was made. Lysate from DMSO-treated control cells was pooled, serially diluted with PEB-1 with PMSF, and applied to duplicate wells of the ELISA plate, in a range of initial lysate amount of 150 μL-2.5 μL. In addition, 100 μL buffer alone was applied in duplicate as a blank. Plates were sealed and gently agitated at room temperature for 2 h. Following capture incubation, the plates were washed 5×300 μL with PBS-T (0.5% Tween-20, PBS-T was supplied in the ELISA kit). For detection, a 1× dilution of enzyme conjugate diluent MRS-2 (5×) was made in PBS-T, into which 1:100 dilutions of enzyme conjugates A and B were added, as per instructions. Plates were resealed, and incubated with agitation, covered, room temperature, for 2 h. The washing was then repeated and 100 μL of room temperature TMB substrate was added. After approximately 30 minutes incubation (room temperature, agitation, covered), the reaction was stopped with 50 μL 3M sulfuric acid. Plates were read at 450 nm on a Molecular Devices Versamax plate reader.
# Inhibitor effect was expressed as a percentage of DMSO-treated control signal, and inhibition curves were calculated using a 4-parameter equation: y=A+((B−A)/(1+((C/x)^D))), where C is half-maximal activity or EC50.
# T1 sequence (P27958 1027-1657, one chain of several): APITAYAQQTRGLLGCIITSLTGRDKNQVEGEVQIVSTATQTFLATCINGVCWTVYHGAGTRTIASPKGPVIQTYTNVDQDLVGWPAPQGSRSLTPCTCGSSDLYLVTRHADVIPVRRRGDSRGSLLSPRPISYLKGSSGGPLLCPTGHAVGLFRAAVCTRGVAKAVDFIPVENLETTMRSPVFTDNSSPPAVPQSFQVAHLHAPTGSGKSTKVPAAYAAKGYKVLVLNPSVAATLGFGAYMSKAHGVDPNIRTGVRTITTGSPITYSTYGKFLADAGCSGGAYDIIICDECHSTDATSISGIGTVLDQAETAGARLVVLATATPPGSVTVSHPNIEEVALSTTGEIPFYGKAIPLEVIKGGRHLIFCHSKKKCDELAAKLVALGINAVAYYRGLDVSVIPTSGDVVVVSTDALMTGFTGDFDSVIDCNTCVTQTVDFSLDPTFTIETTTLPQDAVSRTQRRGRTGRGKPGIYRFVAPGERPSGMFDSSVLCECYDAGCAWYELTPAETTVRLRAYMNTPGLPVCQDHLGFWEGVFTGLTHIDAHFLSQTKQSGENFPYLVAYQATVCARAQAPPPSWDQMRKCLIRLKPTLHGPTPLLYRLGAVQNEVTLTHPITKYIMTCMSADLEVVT
smiles,measurement,setting,value
"C=C[C@@H]1C[C@]1(NC(=O)[C@@H]1C[C@@H](OC(=O)N2Cc3cccc(Cl)c3C2)CN1C(=O)[C@@H](Nc1ccc(F)cc1)C(C)C)C(=O)NS(=O)(=O)C1CC1 [Compound 34, [(3R,5S)-5-((1R,2S)-1-(cyclopropylsulfonylcarbamoyl)-2-vinylcyclopropylcarbamoyl)-1-((S)-2-(4-fluorophenylamino)-3-methylbutanoyl)pyrrolidin-3-yl]4-chloroisoindoline-2-carboxylate]",IC50,[1],< 100 nM
same,EC50,[2],< 100 nM
"CC[C@@H]1C[C@]1(NC(=O)[C@@H]1C[C@@H](OC(=O)N2Cc3cccc(F)c3C2)CN1C(=O)[C@@H](Nc1cncc(C(F)(F)F)c1)C(C)(C)C)C(=O)NS(=O)(=O)C1CC1 [Compound 57, [(3R,5S)-5-((1R,2R)-1-(cyclopropylsulfonylcarbamoyl)-2-ethylcyclopropylcarbamoyl)-1-((S)-3,3-dimethyl-2-(5-(trifluoromethyl)pyridin-3-ylamino)butanoyl)pyrrolidin-3-yl]4-fluoroisoindoline-2-carboxylate]",IC50,[1],< 100 nM
same,EC50,[2],< 100 nM
"C=C[C@@H]1C[C@]1(NC(=O)[C@H]1Cc2cc(Oc3cccc(Cl)c3)ccc2CN1C(=O)[C@@H](Nc1ccc(F)cc1)C(C)(C)C)C(=O)NS(=O)(=O)C1CC1 [Compound 12, (R)-6-(3-chlorophenoxy)-N-((1R,2S)-1-(cyclopropylsulfonylcarbamoyl)-2-vinylcyclopropyl)-2-((S)-2-(4-fluorophenylamino)-3,3-dimethylbutanoyl)-1,2,3,4-tetrahydroisoquinoline-3-carboxamide]",IC50,[1],100 to 1000 nM
same,EC50,[2],10000 to 50000 nM
"C=CCCCCC[C@H](Nc1ccc(F)cc1)C(=O)N1C[C@H](OC(=O)N2Cc3cccc(F)c3C2)C[C@H]1C(=O)N[C@]1(C(=O)NS(=O)(=O)C2CC2)C[C@H]1C=C [Compound 35, [(3R,5S)-5-((1R,2S)-1-(cyclopropylsulfonylcarbamoyl)-2-vinylcyclopropylcarbamoyl)-1-((S)-2-(4-fluorophenylamino)non-8-enoyl)pyrrolidin-3-yl]4-floroisoindoline-2-carboxylate]",IC50,[1],< 100 nM
same,EC50,[2],1000 to 10000 nM
"CC(C)[C@H](Nc1cccc(C(C)(C)C)c1)C(=O)N1C[C@H](OC(=O)N2Cc3cccc(Cl)c3C2)C[C@H]1C(=O)N[C@]1(C(=O)NS(=O)(=O)C2CC2)C[C@H]1C1CC1 [Compound 59, [(3R,5S)-1-((S)-2-(3-tert-butylphenylamino)-3-methylbutanoyl)-5-((1R,2S)-1-(cyclopropylsulfonylcarbamoyl)-2-cyclopropylcyclopropylcarbamoyl)pyrrolidin-3-yl]4-chloroisoindoline-2-carboxylate]",IC50,[1],< 100 nM
same,EC50,[2],< 100 nM
"C=C[C@@H]1C[C@]1(NC(=O)[C@@H]1C[C@@H](OC(=O)N2Cc3cccc(F)c3C2)CN1C(=O)[C@@H](Nc1cccc(C(C)(C)C)c1)C(C)C)C(=O)NS(=O)(=O)C1CC1 [Compound 40, [(3R,5S)-1-((S)-2-(3-tert-butylphenylamino)-3-methylbutanoyl)-5-((1R,2S)-1-(cyclopropylsulfonylcarbamoyl)-2-vinylcyclopropylcarbamoyl)pyrrolidin-3-yl]4-fluoroisoindoline-2-carboxylate]",IC50,[1],< 100 nM
same,EC50,[2],< 100 nM
"C=C[C@@H]1C[C@]1(NC(=O)[C@@H]1C[C@@H](OC(=O)N2Cc3cccc(Cl)c3C2)CN1C(=O)[C@@H](Nc1nc(-c2ccc(F)nc2)cs1)C1CCCCC1)C(=O)NS(=O)(=O)C1CC1 [Compound 61, [(3R,5S)-5-(((1R,2S)-1-(cyclopropylsulfonylcarbamoyl)-2-vinylcyclopropyl)carbamoyl)-1-((S)-2-cyclohexyl-2-(4-(6-fluoropyridin-3-yl)thiazol-2-ylamino)acetyl)pyrrolidin-3-yl]-4-chloroisoindoline-2-carboxylate]",IC50,[1],< 100 nM
same,EC50,[2],< 100 nM
"CC[C@@H]1C[C@]1(NC(=O)[C@@H]1C[C@@H](OC(=O)N2Cc3cccc(F)c3C2)CN1C(=O)[C@@H](Nc1cccc(C(F)(F)F)c1)C(C)C)C(=O)NS(=O)(=O)C1CC1 [Compound 47, [(3R,5S)-5-((1R,2R)-1-(cyclopropylsulfonylcarbamoyl)-2-ethylcyclopropylcarbamoyl)-1-((S)-3-methyl-2-(3-(trifluoromethyl)phenylamino)butanoyl)pyrrolidin-3-yl]4-fluoroisoindoline-2-carboxylate]",IC50,[1],< 100 nM
same,EC50,[2],< 100 nM
